Test results as given in patent publication EP1211505A1, “METHOD FOR MEASURING SUBSTANCE AND M[…] TO BE USED IN THE METHOD” (Asahi Kasei Kabushiki Kaisha, priority 1999, dated 2001).
Like-named read-outs stand apart in the source and are kept apart here.

What was measured:
[1] = Solubility of BCIP / BCI2; assay type: physicochemical; conditions: buffer 1: 1.01 M 2-ethylaminoethanol-HCl/0.505 mM MgCl2 (pH 9.87)
Procedure: The solubility of BCIP in the buffer 1 is about 70 mM. In order to obtain the optimum concentration of BCIP, first an ALP measurement reagent was prepared by dissolving BCIP in the buffer 1 to give a final concentration of 70 mM, and then the prepared reagent was diluted with the buffer 1 step by step to prepare ALP measurement reagents having BCIP final concentrations of 70 mM, 35 mM, 15 mM, 10 mM, 6.25 mM, 5 mM, 2.5 mM and 1.25 mm, respectively.

[2] = in the form of a sodium salt, cited from earlier work

Compound: O=P(O)(O)Oc1c[nH]c2ccc(Br)c(Cl)c12 [BCIP, 5-bromo-4-chloro-3-indoxyl phosphate]
- solubility of BCIP in the buffer 1 [1]: about 70 mM
- solubility of BCIP in pure water ([2]; same value expressed in mM): 54 mM
- solubility of BCIP in pure water [2]: 20 mg/mL
